According to patent US20220378764A1, “[…] OF A GENE ENCODING A CYTOCHROME P450 PROTEIN BY TREATING A HUMAN SUBJECT WITH A NITROXIDE” (priority 2021, published 2022):

Tested on: fifteen genes associated with the cytochrome p450 family
Experiment: Microarray gene expression in tissue of Tempol-fed mice, overall statement
Type: in vivo
Conditions: 5 mg/g of food from 14 to 31 months after birth, cardiac tissue, vs control mice
Description: Mice receiving the same food without the addition of Tempol were used as a negative control. At the age of 31 months, the experimental animals were sacrificed and the hearts were surgically removed. The expression of a broad spectrum of genes in the cardiac tissue was assessed using chip-based microarray technology. Such chips are well known in the art and are widely used to assess gene expression.

With CC1(C)CC(O)CC(C)(C)N1[O] [Tempol, 4-hydroxy-2,2,6,6-tetramethylpiperidine-1-oxyl] the “Expression of fifteen genes associated with the cytochrome p450 family” value was “statistically significant increase in expression”.
